Test results from US20230416248A1, “COMPOUNDS AND USES THEREOF” (Foghorn Therapeutics Inc., priority 2020, published 2023).
Read-outs that look alike come from different tables or passages of the source.

Tests used:
BRG-1 = target: T1, BRG-1 (Homo sapiens, UniProt P51532); test: ATPase catalytic activity of BRG-1, ADP-Glo in vitro biochemical assay; conditions: 30 nM BRG-1, 400 μM ATP, read-out: BRG1 IC50
T1 construct: made in house; host or cells: High Five insect cells
Method: (§1) The ATPase catalytic activity of BRM or BRG-1 was measured by an in vitro biochemical assay using ADP-Glo™ (Promega, V9102). The ADP-Glo™ kinase assay is performed in two steps once the reaction is complete. The first step is to deplete any unconsumed ATP in the reaction. The second step is to convert the reaction product ADP to ATP, which will be utilized by the luciferase to generate luminesce and be detected by a luminescence reader, such as Envision.
Then, following addition of 5 μL of ADP-Glo™ Reagent provided in the kit, the reaction incubates at room temperature for 40 minutes. Then, 10 μL of Kinase Detection Reagent provided in the kit is added to convert ADP to ATP, and the reaction incubates at room temperature for 60 minutes. Finally, luminescence measurement is collected with a plate-reading luminometer, such as Envision.

BRM = target: T2, BRM (Homo sapiens, UniProt P51531); test: ATPase catalytic activity of BRM, ADP-Glo in vitro biochemical assay; conditions: for IC50: 30 nM BRM, 400 μM ATP; for Ratio* (BRG1 IC50 (μM) divided by BRM IC50 (μM)): selectivity ratio BRG1 IC50 / BRM IC50
T2 construct: made in house; host or cells: High Five insect cells
Method: as §1
The assay reaction mixture ([…]) contains 30 nM of BRM or BRG-1, 20 nM salmon sperm DNA (from Invitrogen, UfraPure™ Salmon Sperm DNA Solution, cat #15632011), and 400 μM of ATP in the ATPase assay buffer, which comprises of 20 mM Tris, pH 8, 20 mM MgCl2, 50 mM NaCl, 0.1% Tween-20, and 1 mM fresh DTT (Piercer™ DTT (Dithiothreitol), cat #20290). The reaction is initiated by the addition of the 2.5 μL ATPase solution to 2.5 μL ATP/DNA solution on low volume white Proxiplate-384 plus plate (PerkinElmer, cat #6008280) and incubates at room temperature for 1 hour. Then, following addition of 5 μL of ADP-Glo™ Reagent provided in the kit, the reaction incubates at room temperature for 40 minutes. Then, 10 μL of Kinase Detection Reagent provided in the kit is added to convert ADP to ATP, and the reaction incubates at room temperature for 60 minutes. Finally, luminescence measurement is collected with a plate-reading luminometer, such as Envision.

[1] = ATPase catalytic activity, ADP-Glo

T1 sequence (P51532 whole entry): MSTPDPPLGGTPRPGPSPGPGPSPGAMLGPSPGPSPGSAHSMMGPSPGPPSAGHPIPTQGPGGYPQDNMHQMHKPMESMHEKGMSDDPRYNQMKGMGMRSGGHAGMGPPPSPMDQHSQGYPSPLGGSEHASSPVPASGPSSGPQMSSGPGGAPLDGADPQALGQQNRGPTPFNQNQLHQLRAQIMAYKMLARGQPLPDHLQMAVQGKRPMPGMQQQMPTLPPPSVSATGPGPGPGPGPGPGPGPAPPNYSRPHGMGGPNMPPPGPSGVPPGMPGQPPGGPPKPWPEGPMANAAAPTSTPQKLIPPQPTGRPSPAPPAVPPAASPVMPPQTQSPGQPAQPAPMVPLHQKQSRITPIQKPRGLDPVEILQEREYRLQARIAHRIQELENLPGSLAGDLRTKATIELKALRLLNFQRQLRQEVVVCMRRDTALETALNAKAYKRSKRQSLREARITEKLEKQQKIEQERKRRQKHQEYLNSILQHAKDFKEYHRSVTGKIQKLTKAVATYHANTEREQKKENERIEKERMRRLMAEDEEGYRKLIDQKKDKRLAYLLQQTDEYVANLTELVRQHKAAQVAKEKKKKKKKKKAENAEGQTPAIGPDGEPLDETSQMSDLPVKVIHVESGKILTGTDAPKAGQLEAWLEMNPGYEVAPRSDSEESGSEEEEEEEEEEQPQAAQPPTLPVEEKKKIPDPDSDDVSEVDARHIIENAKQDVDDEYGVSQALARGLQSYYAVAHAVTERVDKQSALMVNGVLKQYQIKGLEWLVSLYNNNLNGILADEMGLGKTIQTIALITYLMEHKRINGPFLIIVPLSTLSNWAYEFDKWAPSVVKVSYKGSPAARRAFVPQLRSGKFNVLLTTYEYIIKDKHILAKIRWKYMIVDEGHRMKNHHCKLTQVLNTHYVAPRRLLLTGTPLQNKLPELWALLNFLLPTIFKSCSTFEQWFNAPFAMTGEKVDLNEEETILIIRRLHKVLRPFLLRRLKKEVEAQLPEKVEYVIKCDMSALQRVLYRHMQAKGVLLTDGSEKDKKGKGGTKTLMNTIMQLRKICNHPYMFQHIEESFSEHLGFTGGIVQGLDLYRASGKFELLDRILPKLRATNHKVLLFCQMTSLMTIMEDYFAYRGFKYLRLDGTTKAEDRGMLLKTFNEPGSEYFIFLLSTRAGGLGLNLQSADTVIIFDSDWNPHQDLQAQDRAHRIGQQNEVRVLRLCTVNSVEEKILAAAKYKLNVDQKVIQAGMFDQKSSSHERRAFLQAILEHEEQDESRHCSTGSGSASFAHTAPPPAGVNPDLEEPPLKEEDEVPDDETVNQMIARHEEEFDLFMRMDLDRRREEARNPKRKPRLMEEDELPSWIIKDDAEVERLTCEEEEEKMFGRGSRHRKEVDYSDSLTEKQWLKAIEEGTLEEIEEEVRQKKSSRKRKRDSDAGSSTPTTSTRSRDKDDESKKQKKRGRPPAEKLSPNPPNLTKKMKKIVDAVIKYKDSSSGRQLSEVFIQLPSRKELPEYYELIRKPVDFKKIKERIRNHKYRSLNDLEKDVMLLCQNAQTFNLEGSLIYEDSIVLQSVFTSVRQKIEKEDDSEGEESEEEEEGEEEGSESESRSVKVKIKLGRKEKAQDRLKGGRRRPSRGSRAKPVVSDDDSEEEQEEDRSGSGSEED
T2 sequence (P51531 whole entry): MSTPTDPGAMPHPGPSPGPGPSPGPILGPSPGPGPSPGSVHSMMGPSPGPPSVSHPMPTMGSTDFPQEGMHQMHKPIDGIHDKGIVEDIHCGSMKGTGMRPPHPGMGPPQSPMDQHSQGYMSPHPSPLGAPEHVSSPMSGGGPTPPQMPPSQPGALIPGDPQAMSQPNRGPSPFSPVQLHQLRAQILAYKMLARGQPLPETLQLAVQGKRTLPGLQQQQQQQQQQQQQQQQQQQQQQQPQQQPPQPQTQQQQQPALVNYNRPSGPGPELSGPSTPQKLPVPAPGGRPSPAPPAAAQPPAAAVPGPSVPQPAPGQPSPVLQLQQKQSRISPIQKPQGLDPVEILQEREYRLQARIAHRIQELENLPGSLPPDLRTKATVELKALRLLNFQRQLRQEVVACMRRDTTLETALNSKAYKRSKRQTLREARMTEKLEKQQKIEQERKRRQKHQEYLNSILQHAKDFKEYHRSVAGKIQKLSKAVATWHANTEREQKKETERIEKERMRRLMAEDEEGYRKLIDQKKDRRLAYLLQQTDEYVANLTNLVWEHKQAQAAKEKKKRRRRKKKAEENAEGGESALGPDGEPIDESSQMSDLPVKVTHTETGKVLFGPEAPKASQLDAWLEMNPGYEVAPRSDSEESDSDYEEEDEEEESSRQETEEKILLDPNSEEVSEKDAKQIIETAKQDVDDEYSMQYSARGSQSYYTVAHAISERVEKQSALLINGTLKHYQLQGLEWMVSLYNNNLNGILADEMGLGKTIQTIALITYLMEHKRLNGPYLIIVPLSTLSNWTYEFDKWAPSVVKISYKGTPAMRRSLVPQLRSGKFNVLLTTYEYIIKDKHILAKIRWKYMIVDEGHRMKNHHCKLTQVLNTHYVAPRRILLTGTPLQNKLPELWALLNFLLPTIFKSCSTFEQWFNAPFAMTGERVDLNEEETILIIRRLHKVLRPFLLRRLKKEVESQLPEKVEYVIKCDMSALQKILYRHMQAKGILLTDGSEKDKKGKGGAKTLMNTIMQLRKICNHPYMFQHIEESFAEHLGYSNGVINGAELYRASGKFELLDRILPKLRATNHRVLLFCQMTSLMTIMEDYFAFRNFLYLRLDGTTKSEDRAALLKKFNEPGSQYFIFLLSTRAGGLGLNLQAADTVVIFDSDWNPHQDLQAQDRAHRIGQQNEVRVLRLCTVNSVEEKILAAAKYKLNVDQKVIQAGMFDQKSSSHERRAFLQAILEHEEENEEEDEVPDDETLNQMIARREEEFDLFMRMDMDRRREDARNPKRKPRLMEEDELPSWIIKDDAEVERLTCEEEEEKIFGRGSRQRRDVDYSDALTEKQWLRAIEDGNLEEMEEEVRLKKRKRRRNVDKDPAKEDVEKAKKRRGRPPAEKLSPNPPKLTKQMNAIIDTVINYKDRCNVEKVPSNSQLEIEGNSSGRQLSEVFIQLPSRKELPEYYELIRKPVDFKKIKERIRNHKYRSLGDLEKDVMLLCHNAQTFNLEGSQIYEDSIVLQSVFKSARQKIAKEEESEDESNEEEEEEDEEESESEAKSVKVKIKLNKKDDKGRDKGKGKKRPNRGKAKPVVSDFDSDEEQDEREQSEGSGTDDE

SMILES | IC50 (BRG-1; ADP-Glo ATPase assay) [nM] | IC50 (BRM; ADP-Glo ATPase assay) [nM] | Ratio* (BRG1 IC50 (μM) divided by BRM IC50 (μM)) (BRM) | Ratio* (BRM; ratio BRG1 IC50 / BRM IC50) | IC50 (BRG-1; [1]) [nM] | IC50 (BRM; [1]) [nM] | Ratio* (BRM; ratio of BRG1 IC50 to BRM IC50)
O=C(NCc1cc2nc(-c3cccc([C@H]4CC4(F)F)n3)ccc2cn1)c1ccc2c(c1)S(=O)(=O)CCOC2 [Compound 267] | 1090 | 35.2 | 30.99 | – | – | – | –
CCN(c1cccc(-c2ccc3cnc(CNC(=O)c4ccc5c(c4)S(=O)(=O)CCOC5)cc3n2)n1)C1CC1 [Compound 337] | – | – | – | – | 211 | 21.9 | 9.67
COCc1cc2c(nc1C(F)F)N(c1ccc3cnc(CNC(=O)c4ccc5c(c4)S(=O)(=O)CCOC5)cc3n1)CCC2 [Compound 835] | 156 | 17.1 | – | 9.15 | – | – | –
C[C@H]1CCOc2c(F)cc(C(=O)NCc3cc4nc(N5CCOc6cccnc65)ccc4cn3)cc2S1(=O)=O [Compound 524] | – | – | – | – | 171 | 14.6 | 11.68
C[C@@H]1CCS(=O)(=O)c2cc(C(=O)NCc3cc4nc(-c5cccc(N6C[C@@H](C)O[C@@H](C)C6)n5)ccc4cn3)ccc2O1 [Compound 416] | – | – | – | – | 2130 | 98.3 | 21.63
CN(C)S(=O)(=O)c1cccc(C(=O)NCc2cc3nc(-c4cncc(C5CC5)n4)ccc3cn2)c1 [Compound 301] | 8880 | 858 | 10.34 | – | – | – | –
C[C@@H]1CN(c2cccc(-c3ccc4cnc(CNC(=O)c5cc(F)c6c(c5)S(=O)(=O)CCO[C@H]6C)cc4n3)n2)C[C@H](C)O1 [Compound 522] | – | – | – | – | 62.1 | 13.8 | 4.48
O=C(NCc1cc2nc(N3CCOc4cc(C5CC5)ccc43)ccc2nn1)c1ccc2c(c1)S(=O)(=O)CCOC2 [Compound 775] | 152 | 12.5 | – | 12.13 | – | – | –
CO[C@H](C)CN(C)c1cccc(-c2ccc3cnc(CNC(=O)c4ccc5c(c4)S(=O)(=O)CCOC5)cc3n2)n1 [Compound 55] | 239 | 25.3 | 9.45 | – | – | – | –
CC(F)(F)COc1cccc(-c2ccc3cnc(CNC(=O)c4ccc5c(c4)S(=O)(=O)CCOC5)cc3n2)n1 [Compound 126] | 295 | 33.5 | 8.80 | – | – | – | –
O=C(NCc1cc2cc(N3CCOc4cc(C5CC5)cnc43)ncc2cn1)c1ccc2c(c1)S(=O)(=O)CCOC2 [Compound 811] | – | – | – | 1.00 | – | – | –
C[C@@H]1CN(c2cccc(-c3ccc4cnc(CNC(=O)c5cc(C6CCC6)c6c(c5)S(=O)(=O)CCOC6)cc4n3)n2)C[C@H](C)O1 [Compound 631] | – | – | – | – | – | 1190 | 4.19
C[C@@H]1CCS(=O)(=O)c2cc(C(=O)NCc3cc4nc(-c5cccc(N6C[C@@H](C)O[C@@H](C)C6)n5)ccc4cn3)cc(Cl)c2O1 [Compound 505] | – | – | – | – | – | 539 | 9.28
C[C@@H]1CN(c2cccc(-c3ccc4cnc(CNC(=O)c5cc(C6(C)CC6)c6c(c5)S(=O)(=O)CCOC6)cc4n3)n2)C[C@H](C)O1 [Compound 351] | – | – | – | – | – | – | 1.00
CC[C@H]1COCc2ccc(C(=O)NCc3cc4nc(-c5cccc(N6C[C@@H](C)O[C@@H](C)C6)n5)ccc4cn3)cc2S1(=O)=O [Compound 360] | – | – | – | – | – | 974 | 5.14
C[C@@H]1CN(c2cccc(-c3ccc4cnc(CNC(=O)c5cccc(S(=O)(=O)C6CC6)c5)cc4n3)n2)C[C@H](C)O1 [Compound 371] | – | – | – | – | – | 196 | 25.45
CS(=O)(=O)c1cc(C(=O)NCc2cc3nc(N4CCCc5ccc(C6CC6)nc54)ccc3cn2)cnc1C(F)F [Compound 721] | – | 188 | – | 26.60 | – | – | –
CC[C@@H]1COCc2ccc(C(=O)NCc3cc4nc(-c5cccc(N6C[C@@H](C)O[C@@H](C)C6)n5)ccc4cn3)cc2S1(=O)=O [Compound 359] | – | – | – | – | – | – | 1.00
Cc1cc(C(=O)NCc2cc3nc(-c4cccc(N5C[C@@H](C)O[C@@H](C)C5)n4)ccc3cn2)cc2c1COC[C@@H](C)S2(=O)=O [Compound 462] | – | – | – | – | – | 1720 | 2.92
CC1CN(c2cccc(-c3ccc4cnc(CNC(=O)c5ccc6c(c5)S(=O)(=O)C(C)COC6C)cc4n3)n2)CC(C)O1 (centres unmarked) [Compound 535] | – | – | – | – | – | 637 | 7.84

The next lines start with the values.

IC50 (BRG-1; ADP-Glo ATPase assay) [nM] | IC50 (BRM; ADP-Glo ATPase assay) [nM] | Ratio* (BRG1 IC50 (μM) divided by BRM IC50 (μM)) (BRM) | Ratio* (BRM; ratio BRG1 IC50 / BRM IC50) | IC50 (BRG-1; [1]) [nM] | IC50 (BRM; [1]) [nM] | Ratio* (BRM; ratio of BRG1 IC50 to BRM IC50) | SMILES
49.6 | 6.9 | 7.16 | – | – | – | – | C[C@H]1CN(c2cccc(-c3ccc4cnc(CNC(=O)c5ccc6c(c5)S(=O)(=O)CCOC6)cc4n3)n2)CCO1 [Compound 223]
987 | 45.9 | – | 21.51 | – | – | – | CC1(c2ccc3c(n2)N(c2ccc4cnc(CNC(=O)c5ccc6c(c5)S(=O)(=O)CCOC6)cc4n2)CCO3)CC1 [Compound 713]
62.2 | 8.8 | – | 7.05 | – | – | – | O=C(NCc1cc2nc(N3CCOc4ccc(C5CC5)c(F)c43)ccc2cn1)c1ccc2c(c1)S(=O)(=O)CCOC2 [Compound 760]
– | – | – | – | 213 | 28.6 | 7.45 | CC1CCN(c2ccc3cnc(CNC(=O)c4ccc5c(c4)S(=O)(=O)CCOC5)cc3n2)c2ncccc21 (centres unmarked) [Compound 504]
136 | 9.4 | 14.43 | – | – | – | – | O=C(NCc1cc2nc(-c3cccc(N4CCC4)n3)ccc2cn1)c1ccc2c(c1)S(=O)(=O)CCOC2 [Compound 304, N-[[2-[6-(azetidin-1-yl)-2-pyridyl]-1,6-naphthyridin-7-yl]methyl]-1,1-dioxo-3,5-dihydro-2H-4,1λ6-benzoxathiepine-8-carboxamide]
205 | 12.6 | – | 16.24 | – | – | – | O=C(NCc1cc2nc(N3CCOc4cnc(C5CC5)c(F)c43)ccc2cn1)c1ccc2c(c1)S(=O)(=O)CCOC2 [Compound 853]
794 | 82.3 | 9.65 | – | – | – | – | COCC1CN(c2cccc(-c3ccc4cnc(CNC(=O)c5ccc6c(c5)S(=O)(=O)CCOC6)cc4n3)n2)C1 [Compound 221]
231 | 43.6 | – | 5.30 | – | – | – | O=C(NCc1cc2nc(N3CCc4cc(C(F)F)cnc43)ccc2cn1)c1ccc2c(c1)S(=O)(=O)CCOC2 [Compound 720]
2180 | 216 | – | 10.10 | – | – | – | Cc1ncnc2c1CCCN2c1ccc2cnc(CNC(=O)c3ccc4c(c3)S(=O)(=O)CCOC4)cc2n1 [Compound 848]
– | – | – | – | 1290 | 23.5 | 54.81 | O=C(NCc1cc2nc(N3CCCc4ccc([C@H]5CC5(F)F)nc43)ccc2cn1)c1ccc2c(c1)S(=O)(=O)CCOC2 [Compound 690]
4660 | 528 | 8.82 | – | – | – | – | O=C(NCc1cc2nc(-c3cccc(F)n3)ccc2cn1)c1ccc2c(c1)S(=O)(=O)CCOC2 [Compound 243]
46.7 | 6.4 | – | 7.26 | – | – | – | CN(c1cnc2c(c1)OCCN2c1ccc2cnc(CNC(=O)c3ccc4c(c3)S(=O)(=O)CCOC4)cc2n1)C1CCC1 [Compound 819]
– | – | – | – | 478 | 20.4 | 23.51 | COCCn1ncc2c1CCCN2c1ccc2cnc(CNC(=O)c3ccc4c(c3)S(=O)(=O)CCOC4)cc2n1 [Compound 400]
– | – | – | – | 919 | 185 | 4.97 | O=C(NCc1cc2nc(-c3cccc(N(C4CCOCC4)C4CC4)n3)ccc2cn1)c1ccc2c(c1)S(=O)(=O)CCOC2 [Compound 398]
– | – | – | – | 358 | 22.1 | 16.22 | CCN1CCN(c2ccc3cnc(CNC(=O)c4ccc5c(c4)S(=O)(=O)CCOC5)cc3n2)c2ncccc21 [Compound 615]
– | – | – | – | – | 1350 | 3.71 | COc1c(-c2ccc3cnc(CNC(=O)c4ccc5c(c4)S(=O)(=O)CCOC5)cc3n2)cccc1C(F)F [Compound 343]
– | – | – | – | – | 1320 | 3.79 | O=C(NCc1cc2nc(-n3cccc(N4CCOCC4)c3=O)ccc2cn1)c1ccc2c(c1)S(=O)(=O)CCOC2 [Compound 401]
– | – | – | – | – | 1700 | 2.94 | CC1Cc2cccnc2N(c2ccc3cnc(CNC(=O)c4ccc5c(c4)S(=O)(=O)CCOC5)cc3n2)C1 (centres unmarked) [Compound 556]
– | – | – | – | – | 715 | 6.99 | O=C(NCc1cc2nc(-c3cccc4c3CN(C3CC3)CC4)ccc2cn1)c1ccc2c(c1)S(=O)(=O)CCOC2 [Compound 685]
– | – | – | – | – | – | 6.87 | O=C(NCc1cc2nc(N3CCCc4ccc(C(F)F)nc43)ccc2cn1)c1ccc2c(c1)S(=O)(=O)CCOC2 [Compound 571]
